Results taken from patent US10344017B2, “Pyrrolcarboxamide derivatives for the inhibition of ERK5” (CANCER RESEARCH TECHNOLOGY LIMITED, priority 2014, dated 2019).

Biological target: T1, ERK5 (Homo sapiens, UniProt Q13164)
T1 construct: made in house
Experiment: ERK5 IMAP assay (fluorescence polarisation)
Format: biochemical
Conditions: average (e.g. geometric mean) where more than one data point; read-out: ERK5 IC50
Protocol: The assay buffer was prepared using 0.01% Tween®-20 5× stock, supplied as part of IMAP™ FP Progressive Binding System Kit (Molecular Devices R7436) and diluted to 1× using miliQ H2O. 1 μL of a 1M DTT stock was added for every 1 mL of 1× assay buffer to give a final concentration of 1 mM DTT.
ERK5 was expressed and purified at CRT-DL by Leon Pang and Sue Young. Aliquots were stored at −80° C. The ERK5 working solution was used at a […] final dilution in assay buffer. […] For 1 plate, […] of ERK5 stock was added to 2262 μL of 1× assay buffer.
To prepare the IMAP™ binding solution for one plate 20.5 μL of IMAP™ binding reagent stock, 1476 μL of 1× binding buffer A (60%), and 984 μL of binding buffer B (40%) (IMAP™ FP Progressive screening express kit (Molecular Devices R8127) was added to 9819.5 μL of milliQ H2O.
1 μL of inhibitor (in 60:40 H2O/DMSO) or 60:40 H2O/DMSO (for controls and blanks) were dry-spotted into the relevant wells of a 384-well assay plate using the MATRIX PlateMate® Plus. 5 μL of ERK5 working solution was added to test and control wells, and 5 μL of 1× assay buffer added to blanks; 4 μL of ATP/substrate working solution was added to all wells using a Matrix multichannel pipette. The plate was sealed using DMSO resistant clear seal and incubated for 2 h at 37° C. 1 μL of the kinase reaction mixture from the first plate was dry spotted into a second 384-well assay plate using the MATRIX PlateMate® Plus. 9 μL of assay buffer was added, followed by 30 μL of IMAP™ binding solution using a multichannel pipette. The plate was incubated at RT in darkness for 2 h. The assay plate was then read on an Analyst HT plate reader (Molecular Devices) using the settings described below: […]

T1 sequence (Q13164 whole entry): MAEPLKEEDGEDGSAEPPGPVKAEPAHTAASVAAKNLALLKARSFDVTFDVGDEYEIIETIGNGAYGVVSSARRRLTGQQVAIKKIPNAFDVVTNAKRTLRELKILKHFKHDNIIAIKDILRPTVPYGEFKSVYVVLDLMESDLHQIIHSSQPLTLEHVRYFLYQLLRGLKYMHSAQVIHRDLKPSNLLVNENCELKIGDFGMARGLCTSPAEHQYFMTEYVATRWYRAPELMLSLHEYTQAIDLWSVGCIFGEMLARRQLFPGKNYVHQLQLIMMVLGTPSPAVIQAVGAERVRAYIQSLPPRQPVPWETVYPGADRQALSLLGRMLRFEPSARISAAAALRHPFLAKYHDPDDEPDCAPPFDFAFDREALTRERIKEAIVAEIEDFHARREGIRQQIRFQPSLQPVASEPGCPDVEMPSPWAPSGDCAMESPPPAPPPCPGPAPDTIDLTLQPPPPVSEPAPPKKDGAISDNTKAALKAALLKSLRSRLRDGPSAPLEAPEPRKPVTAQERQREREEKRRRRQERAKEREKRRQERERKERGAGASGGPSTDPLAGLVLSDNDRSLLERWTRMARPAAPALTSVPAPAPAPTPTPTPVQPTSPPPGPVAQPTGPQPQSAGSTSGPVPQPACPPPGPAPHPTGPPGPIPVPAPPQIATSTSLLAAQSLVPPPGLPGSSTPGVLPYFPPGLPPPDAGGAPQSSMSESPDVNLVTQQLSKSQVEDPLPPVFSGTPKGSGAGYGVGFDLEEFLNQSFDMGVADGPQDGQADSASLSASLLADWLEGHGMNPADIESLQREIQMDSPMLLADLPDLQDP

IC50 [nM]	SMILES
553	Cn1cc(NC(=O)c2cc(C(=O)c3c(Cl)ccc(OC4CCOC4)c3F)c[nH]2)cn1 (stereo not shown) [Example 261, 4-(6-Chloro-2-fluoro-3-((tetrahydrofuran-3-yl)oxy)benzoyl)-N-(1-methyl-1H-pyrazol-4-yl)-1H-pyrrole-2-carboxamide]
459	CC(=O)N1CCC(NC(=O)c2cc(C(=O)c3c(F)cccc3Cl)c[nH]2)CC1 [Example 6, N-(1-Acetylpiperidin-4-yl)-4-(2-chloro-6-fluorobenzoyl)-1H-pyrrole-2-carboxamide]
2660	O=C(Nc1ccncn1)c1cc(C(=O)c2cccc(Cl)c2Cl)c[nH]1 [Example 131, 4-(2,3-Dichlorobenzoyl)-N-(pyrimidin-4-yl)-1H-pyrrole-2-carboxamide]
3640	CNCc1ccc(F)c(C(=O)c2c[nH]c(C(=O)Nc3cccnc3)c2)c1F [Example 274, 4-(2,6-difluoro-3-((methylamino)methyl)benzoyl)-N-(pyridin-3-yl)-1H-pyrrole-2-carboxamide]
1310	Cc1ccc(NC(=O)c2cc(C(=O)c3c(F)cccc3Cl)c[nH]2)c[n+]1[O-] [Example 118, 5-(4-(2-Chloro-6-fluorobenzoyl)-1H-pyrrole-2-carboxamido)-2-methylpyridine 1-oxide]
1490	O=C(Nc1ccc(F)nc1)c1cc(C(=O)c2c(F)cccc2Cl)c[nH]1 [Example 152, 4-(2-Chloro-6-fluorobenzoyl)-N-(6-fluoropyridin-3-yl)-1H-pyrrole-2-carboxamide]
2190	COc1ccncc1NC(=O)c1cc(C(=O)c2c(F)cccc2Cl)c[nH]1 [Example 90, 4-(2-Chloro-6-fluorobenzoyl)-N-(4-methoxypyridin-3-yl)-1H-pyrrole-2-carboxamide]
606	O=C(Nc1cncnc1)c1cc(C(=O)c2c(Cl)ccc(Br)c2F)c[nH]1 [Example 182, 4-(3-Bromo-6-chloro-2-fluorobenzoyl)-N-(pyrimidin-5-yl)-1H-pyrrole-2-carboxamide]
346	O=C(Nc1cncnc1)c1cc(C(=O)c2c(F)ccc(Cl)c2Cl)c[nH]1 [Example 170, 4-(2,3-Dichloro-6-fluorobenzoyl)-N-(pyrimidin-5-yl)-1H-pyrrole-2-carboxamide]
119	CS(=O)(=O)CCn1cc(NC(=O)c2cc(C(=O)c3c(Cl)ccc(Cl)c3F)c[nH]2)cn1 [Example 238, 4-(3,6-Dichloro-2-fluorobenzoyl)-N-(1-(2-(methylsulfonyl)ethyl)-1H-pyrazol-4-yl)-1H-pyrrole-2-carboxamide]
1080	Cc1cc(NC(=O)c2cc(C(=O)c3c(F)cccc3Br)c[nH]2)ccn1 [Example 137, 4-(2-Bromo-6-fluorobenzoyl)-N-(2-methylpyridin-4-yl)-1H-pyrrole-2-carboxamide]
1750	CNc1ncc(NC(=O)c2cc(C(=O)c3c(F)cccc3Cl)c[nH]2)cn1 [Example 12, 4-(2-Chloro-6-fluorobenzoyl)-N-(2-(methylamino)pyrimidin-5-yl)-1H-pyrrole-2-carboxamide]
73	O=C(Nc1cccnc1)c1cc(C(=O)c2c(Cl)ccc(OC3COC3)c2F)c[nH]1 [Example 272, 4-(6-Chloro-2-fluoro-3-(oxetan-3-yloxy)beruoyl)-N-(pyridin-3-yl)-1H-pyrrole-2-carboxamide]
1350	CC(C)(C)OC(=O)N1CCC(NC(=O)c2cc(C(=O)c3c(Cl)ccc(Cl)c3F)c[nH]2)CC1 [Example 2, tert-Butyl 4-(4-(3,6-dichloro-2-fluorobenzoyl)-1H-pyrrole-2-carboxamido)piperidine-1-carboxylate]
1330	CCc1ccc(F)c(C(=O)c2c[nH]c(C(=O)Nc3cccnc3)c2)c1F [Example 162]
777	Cn1cc(NC(=O)c2cc(C(=O)c3c(F)cccc3Cl)c[nH]2)cn1 [Example 269, 4-(2-Chloro-6-fluorobenzoyl)-N-(1-methyl-1H-pyrazol-4-yl)-1H-pyrrole-2-carboxamide]
